Read-outs that look alike come from different tables or passages of the source. Non-standard residues stand in square brackets, D forms with d. Residues, ends and D or L forms follow the SMILES beside them. *: point of attachment. Dolaproine = CO[C@@H]([C@@H]1CCCN1)[C@@H](C)C(=O)O; Dil = CC[C@H](C)[C@H](NC)[C@@H](CC(=O)O)OC; X1 = C[C@@H](N*)[C@@H](O)c1ccccc1; NMeV = CN[C@H](C(=O)O)C(C)C
How the values were obtained:
Format in all cases: cell-based, human
MES SA = experiment: Cytotoxicity assay (72 hour killing assay, CellTiter-Glo), MES SA; conditions: read-out: Cancer cell lines IC50 (nM) MES SA
Protocol: (§1) Cells were cultured in a T75 flask to ˜50-80% confluency and harvested with trypsin into a single cell suspension. Five hundred (500) cells per well were seeded in tissue culture plates in 50 μL/well culture media and incubated at 37° C. for 18-24 h. Compounds were diluted as 400× final desired concentrations in DMSO. Serial dilutions in DMSO were then diluted in culture media for a final DMSO concentration of 0.25% and 50 μL/well of the final dilution was added to the cells (Vf=100 μL). Upon plating and treatment, cells were returned to the incubator for an additional 72 hours. CellTiter-Glo reagent was prepared per manufacturer's instructions and added at 100 μL/well to the cultures. CellTiter-Glo allows for relative enumeration of metabolically active cells by quantifying intracellular ATP concentrations. After 5 minutes of incubation with CellTiter-Glo at ambient room temperature, 125 μL/well of the Cell Titer glo/cell lysate solution was transferred into black assay plates, which were then read in a luminometer within 30 minutes.
(§2) MES SA and MES SA/Dx cells are uterine sarcoma. MES SA Dx cell line was generated from MES SA to achieve upregulation of MDR1.

MES SA DX = experiment: Cytotoxicity assay (72 hour killing assay, CellTiter-Glo), MES SA DX; conditions: read-out: Cancer cell lines IC50 (nM) MES SA DX
Protocol: as §1, §2

HEK 293T = experiment: Cytotoxicity assay (72 hour killing assay, CellTiter-Glo), HEK 293T; conditions: read-out: Cancer cell lines IC50 (nM) HEK 293T
Protocol: as §1
293T cells are human embryonic kidney cell line.

Structure (SMILES)	IC50 (MES SA; Homo sapiens, MES-SA, 72 h) [nM]	IC50 (MES SA DX; Homo sapiens, MES-SA, 72 h) [nM]	IC50 (HEK 293T; Homo sapiens, HEK-293T, 72 h) [nM]	IC50 (MES SA; 50% inhibitory concentration against cell growth, human uterine sarcoma cell line, 72 hours) [nM]	IC50 (MES SA DX; 50% inhibitory concentration against cell growth, MES SA cell line with marked multidrug resistance, 72 hours) [nM]	IC50 (HEK 293T; 50% inhibitory concentration against cell growth, human embryonic kidney cancer cell line, 72 hours) [nM]	IC50 (MES SA; MES-SA, 50% inhibitory concentration against cell growth, human uterine sarcoma cell line, 72 hours) [nM]	IC50 (MES SA DX; Homo sapiens, 50% inhibitory concentration against cell growth, MES SA cell line with marked multidrug resistance, 72 hours) [nM]
COC(=O)C[C@@H]1C[C@@]2(CO2)[C@H](O)[C@@H](/C=C/C(C)=C/C[C@@H]2O[C@H](C)[C@H](NC(=O)/C=C\[C@H](C)OC(=O)N3CCCCC3)C[C@H]2C)O1 [Compound 38, (2S,3Z)-5-{[(2R,3R,5R,6S)-6-{(2E,4E)-5-[(3R,4R,5R,7S)-4-Hydroxy-7-(2-methoxy-2-oxoethyl)-1,6-dioxaspiro[2.5]oct-5-yl]-3-methylpenta-2,4-dien-1-yl}-2,5-dimethyltetrahydro-2H-pyran-3-yl]-amino}-5-oxopent-3-en-2-yl piperidine-1-carboxylate]	> 2500	> 2500	> 400					
COC(=O)C[C@@H]1C[C@@]2(CO2)[C@H](O)[C@@H](/C=C/C(C)=C/C[C@@H]2O[C@H](C)[C@H](NC(=O)/C=C\[C@H](C)OC(=O)N3CCOCC3)C[C@H]2C)O1 [Compound 40]	> 2500	> 2500	> 400					
COC(=O)C[C@@H]1C[C@@]2(CO2)[C@H](O)[C@@H](/C=C/C(C)=C/C[C@@H]2O[C@H](C)[C@H](NC(=O)/C=C\[C@H](C)OC(=O)N3CCCCC3)C[C@@H]2C)O1 [Compound 42]	3.68	3.45	0.24					
COC(=O)C[C@@H]1CC2(CC2)[C@H](O)[C@@H](/C=C/C(C)=C/C[C@@H]2O[C@H](C)[C@H](NC(=O)/C=C\[C@H](C)OC(C)=O)C[C@@H]2C)O1 [Compound 43, Methyl [(5S,7R,8S)-7-{(1E,3E)-5-[(2S,3S,5R,6R)-5-{[(2Z,4S)-4-acetoxypent-2-enoyl]amino}-3,6-di-methyltetrahydro-2H-pyran-2-yl]-3-methylpenta-1,3-dien-1-yl}-8-hydroxy-6-oxaspiro[2.5]oct-5-yl]-acetate]	> 2500	> 2500	88.3					
COC(=O)C[C@@H]1C[C@@]2(CO2)[C@H](O)[C@@H](/C=C/C(C)=C/C[C@@H]2O[C@H](C)[C@H](NC(=O)/C=C\[C@H](C)OC(=O)N3CCOCC3)C[C@@H]2C)O1 [Compound 44]	2.66	3.71	0.15					
COC(=O)C[C@@H]1C[C@@]2(CO2)[C@H](OC(C)=O)[C@@H](/C=C/C(C)=C/C[C@@H]2O[C@H](C)[C@H](NC(=O)/C=C\[C@H](C)OC(C)=O)C[C@@H]2C)O1 [Compound 45, Methyl [(3R,5S,7R,8R)-8-acetoxy-7-{(1E,3E)-5-[(2S,3S,5R,6R)-5-{[(2Z,4S)-4-acetoxypent-2-enoyl]-amino}-3,6-dimethyltetrahydro-2H-pyran-2-yl]-3-methylpenta-1,3-dien-1-yl}-1,6-dioxaspiro[2.5]-oct-5-yl]acetate]	6.82	6.73	0.58					
COC(=O)C[C@@H]1C[C@@]2(CO2)[C@H](O)[C@@H](/C=C/C(C)=C\C[C@@H]2O[C@H](C)[C@H](NC(=O)/C=C\[C@H](C)OC(C)=O)C=C2C)O1 [Compound 46]	> 1000	> 1000	> 1000					
COC(=O)C[C@@H]1C[C@@]2(CO2)[C@H](O)[C@@H](/C=C/C(C)=C\C[C@@H]2O[C@H](C)[C@H](NC(=O)/C=C\[C@H](C)OC(C)=O)C[C@H]2C)O1 [Compound 47, Methyl [(3R,5S,7R,8R)-7-{(1E,3Z)-5-[(2S,3R,5R,6R)-5-{[(2Z,4S)-4-acetoxypent-2-enoyl]amino}-3,6-dimethyltetrahydro-2H-pyran-2-yl]-3-methylpenta-1,3-dien-1-yl}-8-hydroxy-1,6-dioxaspiro[2.5]-oct-5-yl]acetate]	> 1000	> 1000	> 1000					
CC[C@H](C)[C@@H]([C@@H](CC(=O)N1CCC[C@H]1[C@H](OC)[C@@H](C)C(=O)N[C@H](C)[C@@H](O)c1ccccc1)OC)N(C)C(=O)[C@@H](NC(=O)[C@@H](NC)C(C)C)C(C)C [MMAE, reference compound] (H-[NMeV]V[Dil][Dolaproine]-X1)				0.096	88.2	0.068		
CC(=O)O[C@H]1C(=O)[C@@]2(C)[C@H]([C@H](OC(=O)c3ccccc3)[C@]3(O)C[C@H](OC(=O)[C@H](O)[C@@H](NC(=O)c4ccccc4)c4ccccc4)C(C)=C1C3(C)C)[C@]1(OC(C)=O)CO[C@@H]1C[C@@H]2O [paclitaxel, reference compound]							2.47	> 400

Source: US11584754B2, “Derivatives of thailanstatin A, methods of treatment and methods of synthesis thereof” (WILLIAM MARSH RICE UNIVERSITY, priority 2016, dated 2023)
